Assay results from patent publication US20060046975A1, “Method for preparing a medical solution for the manufacture of a medicament for peritoneal dialysis” (priority 2002, published 2006).

Columns and labels:
[1] = system: human peritoneal mesothelial cells and fibroblasts; details: Breborowicz et al 1998; cited from earlier work
[2] = fluorescence of terminally heat sterilised NAG containing solution; assay type: physicochemical; details: FIG. 3; excitation at 350 nm, emission of 430 nm
Description: (§1) A simple, reliable and known way to study the cytotoxicity of substances or of medical fluids is to test proliferation as in vitro inhibition of cell growth (ICG) in cultured cells. Another method to get a rough estimation of the amount of amino sugars that is rearranged is measurement of the fluorescence.
The lowest fluorescence is seen at around pH 4.

[3] = pH change of the solution during sterilisation; assay type: physicochemical
Description: NAG and other amino sugars have a major difference from glucose and glucose-like compounds by having one amino group and possibly an acetyl group coupled to the glucose ring.

[4] = analysis of degradation products (3-DG, 3,4-DGE) in heat sterilised solutions by HPLC; assay type: physicochemical; details: heat sterilised NAG solutions
Description: This cytotoxicity depends on the formation of toxic degradation products from said amino sugars. […] This fact has not been known previously and forms the basis for the present invention. It should be noted that the decomposition pattern for an amino sugar solution during heat sterilisation follows specific Maillard reactions giving several different toxic decomposition products. The decomposition pattern differs for e.g. a glucose solution during heat sterilisation, wherein different decomposition products are formed. This difference is illustrated in FIGS. 5a-5d, showing chromatograms when analysing 3-DG and 3,4-DGE in a NAG solution and in a glucose solution, respectively. The difference in degradation is likely due to that the NAG molecules contains groups that allows the Maillard reaction to take place and therefore create a large number of degradation products not seen in a glucose solution.

[5] = system: cultured cells; experiment: in vitro inhibition of cell growth (ICG) in cultured cells by heat sterilised NAG solutions; assay type: cell-based
Description: Experiments in which measurements of the percentage of inhibition of cell growth (ICG) and fluorescence have been made at varying NAG concentrations, and also at varying pH values, during terminal heat sterilisation are illustrated in FIGS. 1-4. The results of the experiments imply that the concentration of the amino sugar/sugars should be optimised.
as §1
More precisely, from the graph in FIG. 1 it can be seen that the inhibition of cell growth reaches a maximum with sterilisation of a solution containing about 5% NAG. With increasing NAG concentration the inhibition of cell growth decreases.
The bar diagram in FIG. 2 illustrates the effect of increased NAG concentration at different pH values during terminal heat sterilisation.

[6] = system: peritoneum; details: cited from earlier work

| Compound | production of hyaluronan and sulphated glycosaminoglycans [1] | pH at which fluorescence is lowest [2] | change of pH of the solution during sterilisation [3] | known glucose degradation products found [4] | inhibition of cell growth with increasing NAG concentration ([5]; FIG. 1, above the maximum at about 5% NAG) | NAG concentration during sterilisation at which inhibition of cell growth reaches a maximum ([5]; FIG. 1, terminal heat sterilisation) | inhibition of cell growth, effect of NAG concentration during sterilisation ([5]; FIG. 2, 30% versus 1.5% NAG, for all three pH values) | percentage inhibition of cell growth, effect of pH during sterilisation ([5]; FIG. 2, pH 3.0 versus pH 5.5 and 7.2) | optimal pH of sterilisation from an in vitro toxicological point of view ([5]; NAG containing solution, higher or lower pH gives higher percentage of inhibited growth) | cytotoxicity after heat sterilisation ([5]; amino sugars, e.g. NAG, in conventional medical solutions) | effect on the peritoneum of dialysis solution supplemented with N-acetylglucosamine ([6]; Wu et al 1998, chronic peritoneal dialysis) | function of the peritoneum as a dialysis membrane ([6]; Wieczorowska et al 1995, fluid supplemented with exogenous hyaluronan) |
| --- | --- | --- | --- | --- | --- | --- | --- | --- | --- | --- | --- | --- |
| CC(=O)N[C@H]1C(O)O[C@H](CO)[C@@H](O)[C@@H]1O (stereo partly drawn) [NAG, N-acetylglucosamine] | rapidly stimulates | ~4 | increases during sterilisation | none of the known glucose degradation products has been found | decreases | about 5% | lower after a terminal heat sterilisation at a NAG concentration of 30% than at a NAG concentration of 1.5% | lower after terminal heat sterilisation at a pH of 3.0 than at a pH of 5.5 and 7.2 | 2.5-3.5 | increased cytotoxicity | causes accumulation of glucosaminoglycans in the peritoneal interstitium |  |
| hyaluronan [reference compound] |  |  |  |  |  |  |  |  |  |  |  | better preserved |
